ChEMBL document CHEMBL1201861, “Genomics of Drug Sensitity in Cancer screening data, Wellcome Trust Sanger Institute”

Key:
Assay in all cases: cells
Type in all cases: functional, cell-based, Homo sapiens
ES6 = conditions: Homo sapiens, ES6;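 further: growth inhibition of human ES6 cells, read out with a cell viability assay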
Description: SANGER: Inhibition of human ES6 cell growth in a cell viability assay.

NCI-H526 = conditions: Homo sapiens, NCI-H526;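 further: growth inhibition of the human NCI-H526 cell line, measured by a cell viability assay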
Description: SANGER: Inhibition of human NCI-H526 cell growth in a cell viability assay.

SNU1 = conditions: Homo sapiens, SNU1;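 further: growth inhibition of human NCI-SNU-1 cells, measured with a cell viability assay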
Description: SANGER: Inhibition of human NCI-SNU-1 cell growth in a cell viability assay.

TGW = conditions: Homo sapiens, TGW;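 further: growth inhibition of human TGW cells, read out with a cell viability assay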
Description: SANGER: Inhibition of human TGW cell growth in a cell viability assay.

VA-ES-BJ = conditions: Homo sapiens, VA-ES-BJ;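 further: growth inhibition of the VA-ES-BJ cell line, read out by a cell viability assay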
Description: SANGER: Inhibition of human VA-ES-BJ cell growth in a cell viability assay.

EOL1 = conditions: Homo sapiens, EOL1;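 further: growth inhibition of EoL-1 cells, read out by a cell viability assay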
Description: SANGER: Inhibition of human EoL-1-cell cell growth in a cell viability assay.

HEL = conditions: Homo sapiens, HEL;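 further: growth inhibition of HEL cells, read out with a cell viability assay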
Description: SANGER: Inhibition of human HEL cell growth in a cell viability assay.

NMC-G1 = conditions: Homo sapiens, NMC-G1;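 further: growth inhibition of the NMC-G1 cell line, measured with a cell viability read-out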
Description: SANGER: Inhibition of human NMC-G1 cell growth in a cell viability assay.

D-263MG = conditions: Homo sapiens, D-263MG
Description: SANGER: Inhibition of human D-263MG cell growth in a cell viability assay.

KY821 = conditions: Homo sapiens, KY821;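 further: growth inhibition of human KY821 cells, read out by a cell viability assay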
Description: SANGER: Inhibition of human KY821 cell growth in a cell viability assay.

MS-1 = conditions: Homo sapiens, MS-1;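 further: growth inhibition of MS-1 cells, read out by cell viability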
Description: SANGER: Inhibition of human MS-1 cell growth in a cell viability assay.

TE-11 = conditions: Homo sapiens, TE-11;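 further: growth inhibition of human TE-11 cells, read out by a cell viability assay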
Description: SANGER: Inhibition of human TE-11 cell growth in a cell viability assay.

COLO-320-HSR = conditions: Homo sapiens, COLO-320-HSR;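 further: growth inhibition of COLO-320-HSR cells, determined with a cell viability assay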
Description: SANGER: Inhibition of human COLO-320-HSR cell growth in a cell viability assay.

SNU-5 = conditions: Homo sapiens, SNU-5;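 further: cell viability readout used to measure growth inhibition in human NCI-SNU-5 cells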
Description: SANGER: Inhibition of human NCI-SNU-5 cell growth in a cell viability assay.

NCI-H1304 = conditions: Homo sapiens, NCI-H1304;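 further: growth inhibition of the cancer cell line, measured in a cell viability assay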
Description: SANGER: Inhibition of human NCI-H1304 cell growth in a cell viability assay.

EW-16 = conditions: Homo sapiens, EW-16;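 further: growth inhibition of human EW-16 cells, read out as cell viability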
Description: SANGER: Inhibition of human EW-16 cell growth in a cell viability assay.

A253 cell line = conditions: Homo sapiens, A253;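 further: growth inhibition of A253 cells, read out with a cell viability assay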
Description: SANGER: Inhibition of human A253 cell growth in a cell viability assay.

SJSA-1 = conditions: Homo sapiens, SJSA-1;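 further: growth inhibition of human SJSA-1 cells, read out through a cell viability measurement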
Description: SANGER: Inhibition of human SJSA-1 cell growth in a cell viability assay.

CAS-1 = conditions: Homo sapiens, CAS-1;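 further: growth inhibition of CAS-1 cells, measured with a cell viability assay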
Description: SANGER: Inhibition of human CAS-1 cell growth in a cell viability assay.

HCC1187 = conditions: Homo sapiens, HCC1187;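 further: growth inhibition of HCC1187 cells, read out with a cell viability assay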
Description: SANGER: Inhibition of human HCC1187 cell growth in a cell viability assay.

LU-139 = conditions: Homo sapiens, LU-139
Description: SANGER: Inhibition of human LU-139 cell growth in a cell viability assay.

RXF 393 = conditions: Homo sapiens, RXF 393;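 further: growth inhibition of human RXF 393 cells, read out with a cell viability assay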
Description: SANGER: Inhibition of human RXF393 cell growth in a cell viability assay.

CTB-1 = conditions: Homo sapiens, CTB-1
Description: SANGER: Inhibition of human CTB-1 cell growth in a cell viability assay.

no-11 = conditions: Homo sapiens;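 further: growth inhibition of human NO-11 cells, read out with a cell viability assay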
Description: SANGER: Inhibition of human no-11 cell growth in a cell viability assay.

BT-474 = conditions: Homo sapiens, BT-474
Description: SANGER: Inhibition of human BT-474 cell growth in a cell viability assay.

LU-134-A = conditions: Homo sapiens, LU-134-A
Description: SANGER: Inhibition of human LU-134-A cell growth in a cell viability assay.

KGN = conditions: Homo sapiens, KGN;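 further: growth inhibition of KGN cells, read out with a cell viability assay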
Description: SANGER: Inhibition of human KGN cell growth in a cell viability assay.

CTV-1 = conditions: Homo sapiens, CTV-1;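 further: growth inhibition of the cell line, read out with a cell viability assay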
Description: SANGER: Inhibition of human CTV-1 cell growth in a cell viability assay.

HCC2218 = conditions: Homo sapiens, HCC2218;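 further: cell viability assay read-out, with IC50 given as the concentration that inhibits growth of the cell line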
Description: SANGER: Inhibition of human HCC2218 cell growth in a cell viability assay.

PSN1 = conditions: Homo sapiens, PSN1;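 further: suppression of growth of human PSN1 cells, read out by a cell viability assay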
Description: SANGER: Inhibition of human PSN1 cell growth in a cell viability assay.

ALL-PO = conditions: Homo sapiens, ALL-PO;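 further: growth inhibition of ALL-PO cells, read out by a cell viability assay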
Description: SANGER: Inhibition of human ALL-PO cell growth in a cell viability assay.

LB2518-MEL = conditions: Homo sapiens, LB2518-MEL;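 further: growth inhibition of human LB2518-MEL cells, measured with a cell viability assay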
Description: SANGER: Inhibition of human LB2518-MEL cell growth in a cell viability assay.

TE-6 = conditions: Homo sapiens, TE-6;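 further: growth inhibition of TE-6 cells, read out with a cell viability assay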
Description: SANGER: Inhibition of human TE-6 cell growth in a cell viability assay.

SK-N-FI = conditions: Homo sapiens, SK-N-FI;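 further: cell viability assay measuring growth inhibition of human SK-N-FI cells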
Description: SANGER: Inhibition of human SK-N-FI cell growth in a cell viability assay.

SF-126 = conditions: Homo sapiens, SF-126;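 further: growth inhibition of human SF126 cells, read out with a cell viability assay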
Description: SANGER: Inhibition of human SF126 cell growth in a cell viability assay.

JAR = conditions: Homo sapiens, JAR;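 further: growth inhibition of human JAR cells determined with a cell viability assay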
Description: SANGER: Inhibition of human JAR cell growth in a cell viability assay.

COLO-824 = conditions: Homo sapiens, COLO-824
Description: SANGER: Inhibition of human COLO-824 cell growth in a cell viability assay.

NCI-H2126 = conditions: Homo sapiens, NCI-H2126;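 further: growth inhibition of the cancer cell line, determined with a cell viability readout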
Description: SANGER: Inhibition of human NCI-H2126 cell growth in a cell viability assay.

A704 = conditions: Homo sapiens, A704;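 further: growth inhibition of human A704 cells, read out with a cell viability assay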
Description: SANGER: Inhibition of human A704 cell growth in a cell viability assay.

Calu-6 = conditions: Homo sapiens, Calu-6;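 further: growth of human Calu-6 cells, read out by a cell viability assay, IC50 marking inhibition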
Description: SANGER: Inhibition of human Calu-6 cell growth in a cell viability assay.

LAN-6 = conditions: Homo sapiens, LAN-6;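 further: growth inhibition of LAN-6 cells, determined with a cell viability assay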
Description: SANGER: Inhibition of human LAN-6 cell growth in a cell viability assay.

KM12 = conditions: Homo sapiens, KM12;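 further: KM12 cell growth inhibition, read out with a cell viability assay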
Description: SANGER: Inhibition of human KM12 cell growth in a cell viability assay.

HCC2157 = conditions: Homo sapiens, HCC2157;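 further: growth inhibition of the cancer cell line, read out as cell viability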
Description: SANGER: Inhibition of human HCC2157 cell growth in a cell viability assay.

A388 = conditions: Homo sapiens, A388;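 further: growth inhibition of human A388 cells, read out with a cell viability assay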
Description: SANGER: Inhibition of human A388 cell growth in a cell viability assay.

SCH = conditions: Homo sapiens, SCH;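 further: growth inhibition of human SCH cells, read out in a cell viability assay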
Description: SANGER: Inhibition of human SCH cell growth in a cell viability assay.

Becker = conditions: Homo sapiens, Becker;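 further: growth inhibition of Becker cells, read out with a cell viability assay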
Description: SANGER: Inhibition of human Becker cell growth in a cell viability assay.

HT-144 = conditions: Homo sapiens, HT-144
Description: SANGER: Inhibition of human HT-144 cell growth in a cell viability assay.

C8166 = conditions: Homo sapiens, C8166;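 further: growth inhibition of human C8166 cells measured by a cell viability assay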
Description: SANGER: Inhibition of human C8166 cell growth in a cell viability assay.

SNU-C2B = conditions: Homo sapiens, SNU-C2B;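 further: cell viability readout used to measure compound-driven suppression of SNU-C2B cell proliferation, IC50 marking half-maximal growth inhibition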
Description: SANGER: Inhibition of human SNU-C2B cell growth in a cell viability assay.

MFH-ino = conditions: Homo sapiens, MFH-ino;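 further: growth inhibition of human MFH-ino cells, read out by a cell viability assay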
Description: SANGER: Inhibition of human MFH-ino cell growth in a cell viability assay.

CC1(C)CNc2cc(NC(=O)c3cccnc3NCc3ccncc3)ccc21 [MOTESANIB]
IC50 (ES6): > 2000 nM | IC50 (NCI-H526): > 2000 nM | IC50 (SNU1): > 2000 nM | IC50 (TGW): > 2000 nM | IC50 (VA-ES-BJ): > 2000 nM | IC50 (EOL1): < 7.81 nM | IC50 (HEL): > 2000 nM | IC50 (NMC-G1): > 2000 nM | IC50 (D-263MG): > 2000 nM | IC50 (KY821): > 2000 nM | IC50 (MS-1): > 2000 nM | IC50 (TE-11): > 2000 nM | IC50 (COLO-320-HSR): > 2000 nM | IC50 (SNU-5): > 2000 nM | IC50 (NCI-H1304): > 2000 nM | IC50 (EW-16): > 2000 nM | IC50 (A253 cell line): > 2000 nM | IC50 (SJSA-1): > 2000 nM | IC50 (CAS-1): > 2000 nM | IC50 (HCC1187): > 2000 nM | IC50 (LU-139): > 2000 nM | IC50 (RXF 393): > 2000 nM | IC50 (CTB-1): > 2000 nM | IC50 (no-11): > 2000 nM | IC50 (BT-474): > 2000 nM | IC50 (LU-134-A): > 2000 nM | IC50 (KGN): > 2000 nM | IC50 (CTV-1): > 2000 nM | IC50 (HCC2218): > 2000 nM | IC50 (PSN1): > 2000 nM | IC50 (ALL-PO): > 2000 nM | IC50 (LB2518-MEL): > 2000 nM | IC50 (TE-6): > 2000 nM | IC50 (SK-N-FI): > 2000 nM | IC50 (SF-126): > 2000 nM | IC50 (JAR): > 2000 nM | IC50 (COLO-824): > 2000 nM | IC50 (NCI-H2126): > 2000 nM | IC50 (A704): > 2000 nM | IC50 (Calu-6): > 2000 nM | IC50 (LAN-6): > 2000 nM | IC50 (KM12): > 2000 nM | IC50 (HCC2157): > 2000 nM | IC50 (A388): > 2000 nM | IC50 (SCH): > 2000 nM | IC50 (Becker): > 2000 nM | IC50 (HT-144): > 2000 nM | IC50 (C8166): > 2000 nM | IC50 (SNU-C2B): > 2000 nM

C#Cc1cccc(Nc2ncnc3cc(OCCOC)c(OCCOC)cc23)c1 [ERLOTINIB]
IC50 (ES6): > 2000 nM | IC50 (NCI-H526): > 2000 nM | IC50 (SNU1): > 2000 nM | IC50 (VA-ES-BJ): > 2000 nM | IC50 (EOL1): > 2000 nM | IC50 (HEL): > 2000 nM | IC50 (NMC-G1): > 2000 nM | IC50 (D-263MG): > 2000 nM | IC50 (MS-1): > 2000 nM | IC50 (COLO-320-HSR): > 2000 nM | IC50 (SNU-5): > 2000 nM | IC50 (EW-16): > 2000 nM | IC50 (A253 cell line): > 2000 nM | IC50 (SJSA-1): > 2000 nM | IC50 (CAS-1): > 2000 nM | IC50 (HCC1187): > 2000 nM | IC50 (LU-139): > 2000 nM | IC50 (RXF 393): > 2000 nM | IC50 (CTB-1): > 2000 nM | IC50 (no-11): > 2000 nM | IC50 (BT-474): > 2000 nM | IC50 (LU-134-A): > 2000 nM | IC50 (MFH-ino): > 2000 nM | IC50 (KGN): > 2000 nM | IC50 (CTV-1): > 2000 nM | IC50 (HCC2218): > 2000 nM | IC50 (PSN1): > 2000 nM | IC50 (ALL-PO): > 2000 nM | IC50 (LB2518-MEL): > 2000 nM | IC50 (TE-6): > 2000 nM | IC50 (SF-126): > 2000 nM | IC50 (COLO-824): > 2000 nM | IC50 (NCI-H2126): > 2000 nM | IC50 (Calu-6): > 2000 nM | IC50 (LAN-6): > 2000 nM | IC50 (KM12): > 2000 nM | IC50 (HCC2157): > 2000 nM | IC50 (A388): 1090 nM | IC50 (SCH): > 2000 nM | IC50 (Becker): > 2000 nM | IC50 (HT-144): > 2000 nM | IC50 (C8166): > 2000 nM

Cn1cnc2c(F)c(Nc3ccc(Br)cc3Cl)c(C(=O)NOCCO)cc21 [SELUMETINIB]
IC50 (ES6): > 4000 nM | IC50 (NCI-H526): > 4000 nM | IC50 (SNU1): 1770 nM | IC50 (TGW): > 4000 nM | IC50 (VA-ES-BJ): > 4000 nM | IC50 (EOL1): 145 nM | IC50 (HEL): > 4000 nM | IC50 (NMC-G1): > 4000 nM | IC50 (D-263MG): 1180 nM | IC50 (KY821): 107 nM | IC50 (MS-1): > 4000 nM | IC50 (TE-11): > 4000 nM | IC50 (COLO-320-HSR): > 4000 nM | IC50 (SNU-5): 3610 nM | IC50 (NCI-H1304): > 4000 nM | IC50 (EW-16): > 4000 nM | IC50 (A253 cell line): > 4000 nM | IC50 (SJSA-1): 3780 nM | IC50 (CAS-1): > 4000 nM | IC50 (HCC1187): > 4000 nM | IC50 (LU-139): > 4000 nM | IC50 (RXF 393): > 4000 nM | IC50 (CTB-1): > 4000 nM | IC50 (no-11): > 4000 nM | IC50 (BT-474): > 4000 nM | IC50 (LU-134-A): > 4000 nM | IC50 (KGN): > 4000 nM | IC50 (CTV-1): > 4000 nM | IC50 (HCC2218): 2480 nM | IC50 (PSN1): 366 nM | IC50 (ALL-PO): > 4000 nM | IC50 (LB2518-MEL): 93.8 nM | IC50 (TE-6): > 4000 nM | IC50 (SK-N-FI): > 4000 nM | IC50 (SF-126): > 4000 nM | IC50 (JAR): > 4000 nM | IC50 (COLO-824): > 4000 nM | IC50 (A704): > 4000 nM | IC50 (Calu-6): > 4000 nM | IC50 (LAN-6): 2830 nM | IC50 (KM12): 2540 nM | IC50 (HCC2157): > 4000 nM | IC50 (A388): > 4000 nM | IC50 (SCH): > 4000 nM | IC50 (Becker): > 4000 nM | IC50 (HT-144): 89 nM | IC50 (C8166): > 4000 nM | IC50 (SNU-C2B): > 4000 nM
